Results as given in US7220748B2, “Use of 4-(2-Flurophenyl)-6-methyl-2-(1-piperazinyl)thieno(2,3-D)-pyrimidine for treating of urinary incontinence” (Arachnova Therapeutics Ltd., priority 2002, dated 2007).
Where “and” joins values, the source holds several entries; their conditions need not be identical. Identical values can stand only once.

Tested on: urethra/internal sphincter
Test: Urethral perfusion pressure, vesicular pressure and external sphincter EMG in anaesthetised female rats
Assay type: in vivo, rat
Experimental: Female Sprague-Dawley rats (225–350 g) were anaesthetised using urethane. The bladder was exposed through a midline incision into the abdomen and intravesicular pressure was recorded via a catheter inserted into the bladder. A second catheter was inserted into the bladder to allow infusion of saline using a syringe pump when required. A third catheter was inserted into the bladder and wedged into position in the neck of the bladder with the catheter extending into the urethra. This set-up allowed constant infusion of saline into the urethra whilst urethral pressure was recorded. Changes in urethral pressure are assumed to reflect changes in urethral resistance. In each animal, electromyographic (EMG) recordings were made of urethral striated muscle activity by inserting 2 fine copper electrodes either side of the urethral opening.
Once stable, bladder and urethral pressures were recorded, the bladder was inflated by direct infusion of physiological saline into the bladder at a rate of 0.046 ml/min. This rate approximates the maximum hourly diuresis rate. Infusion into the bladder was terminated prior to evoking micturition and the bladder volume maintained. During and after saline infusion, simultaneous recordings were made of urethral perfusion pressure and of external sphincter EMG activity. Once these parameters had stabilised, autonomic drive to the lower urinary tract was inhibited by administration of hexamethonium (10 mg/kg i.v.) and changes to urethral perfusion pressure and external sphincter EMG recorded. Decamethonium (30 mg/kg i.v.) was then added to remove striated muscle activity. In one group of animals, prior to intravesicular infusion of saline a single bolus dose of MCI-225 was administered (3 mg/kg i.v.). In a second group of animals a bolus dose of vehicle was administered. The effect of MCI-225 and vehicle was determined by analysing the changes in urethral perfusion pressure and external sphincter EMG activity during and after infusion and following administration of the ganglion blocker hexamethonium and then finally decamethonium to block the striated muscle activity of the external sphincter.

Cc1cc2c(-c3ccccc3F)nc(N3CCNCC3)nc2s1.Cl.O [MCI-225, 4-(2-Fluorophenyl)-6-methyl-2-(1-piperazinyl)thieno[2,3-D]pyrimidine monohydrate hydrochloride]
Effect on tone of the urethra/internal sphincter (3 mg/kg i.v., anaesthetised female rats): increased the tone of the urethra/internal sphincter
Decrease in urethral perfusion pressure after decamethonium, from values before hexamethonium (3 mg/kg i.v., after hexamethonium 10 mg/kg i.v. then decamethonium 30 mg/kg i.v., vehicle 44±4%): 64±7%
Fall in external sphincter activity (EUS-EMG) after hexamethonium (3 mg/kg i.v., after hexamethonium 10 mg/kg i.v., compared with vehicle-treated animals): Larger falls
Drop in urethral perfusion pressure after hexamethonium (3 mg/kg i.v., after hexamethonium 10 mg/kg i.v., vehicle 35±7%): 55±5%
Increase in urethral pressure from baseline (3 mg/kg i.v., baseline vs after intravesicular infusion, p=0.04 Students t test, vehicle 29%): 77%
Vesicular pressure (VP) after intravesicular infusion (anaesthetized female rats, after intravesicular saline infusion, 3 mg kg^-1 i.v., n=3): 8 ± 1 mmHg
Urethral perfusion pressure (UP) after intravesicular infusion (anaesthetized female rats, after intravesicular saline infusion, 3 mg kg^-1 i.v., n=3, monohydrate hydrochloride): 23±2 mmHg
Baseline urethral perfusion pressure (UP) (anaesthetized female rats, baseline before intravesicular infusion, 3 mg kg^-1 i.v., n=3, monohydrate hydrochloride): 13±1 mmHg and 13 ± 2 mmHg
